Assay results from patent US20230310472A1, “Stable Topical Formulations of 1(R)-4-(5-(4-Methoxy-3-Propoxphenyl)Pyridin-3-YL)-1,2-OX-Aborolan-2-OL” (Pfizer Inc., priority 2020, published 2023).

What was measured:
Assay type in all cases: in vitro ADME
dog hepatocytes = assay: In vitro metabolism in hepatocytes; conditions: non-radiolabeled
Excerpt: (§1) An assessment of the metabolism of non-radiolabeled PF-07038124 was 5 conducted in vitro using mouse, rat, dog, monkey and human hepatocytes. […] The primary routes of metabolism were hydrolysis/oxidation of the oxaborole ring to yield the diol (PF-07086920), glucuronidation of the pyridyl nitrogen, hydroxylation on the propyl group of the phenoxypropyl moiety, and demethylation of the methoxy group (shown below). All metabolites detected in mouse, rat, dog, and monkey hepatocytes were also observed in human hepatocytes.

human hepatocytes = assay: In vitro metabolism in hepatocytes; conditions: non-radiolabeled
Excerpt: as §1

monkey hepatocytes = assay: In vitro metabolism in hepatocytes; conditions: non-radiolabeled
Excerpt: as §1

mouse hepatocytes = assay: In vitro metabolism in hepatocytes; conditions: non-radiolabeled
Excerpt: as §1

rat hepatocytes = assay: In vitro metabolism in hepatocytes; conditions: non-radiolabeled
Excerpt: as §1

[1] = Stability on incubation in blood (LC-MS/MS); conditions: for concentration of PF-07038124 following incubation / concentration of PF-07086920 following incubation of PF-07038124: 1 hour at 1 μM; for chemical stability in blood: oxidation of the oxaborole ring to diol
Method: One of the major metabolic pathways in humans was formation of the oxaborole ring opened molecule, PF-07086920. […] Following incubation for 1 hour at 1 μM in human and rat blood, the concentration of PF-07038124 declined whereas the concentration of PF-07086920 increased in both human and rat blood as determined by liquid chromatography-tandem mass spectrometry. In addition to being a metabolite, PF-07086920 was also determined to be a degradant in the formulations comprising PF-07038124.

Structure (SMILES)	metabolism of PF-07038124 in hepatocytes (dog hepatocytes)	metabolism of PF-07038124 in hepatocytes (human hepatocytes)	metabolism of PF-07038124 in hepatocytes (monkey hepatocytes)	metabolism of PF-07038124 in hepatocytes (mouse hepatocytes)	metabolism of PF-07038124 in hepatocytes (rat hepatocytes)	concentration of PF-07038124 following incubation ([1]; human blood)	chemical stability in blood ([1]; human blood)	concentration of PF-07038124 following incubation ([1]; rat blood)	chemical stability in blood ([1]; rat blood)	concentration of PF-07086920 following incubation of PF-07038124 ([1]; human blood)	concentration of PF-07086920 following incubation of PF-07038124 ([1]; rat blood)
CCCOc1cc(-c2cncc([C@@H]3COB(O)C3)c2)ccc1OC [PF-07038124, (R)-4-(5-(4-methoxy-3-propoxyphenyl)pyridin-3-yl)-1,2-oxaborolan-2-ol]	Moderate to extensive metabolism	Moderate to extensive metabolism	Moderate to extensive metabolism	Moderate to extensive metabolism	Moderate to extensive metabolism	declined	chemically unstable	declined	chemically unstable	–	–
CCCOc1cc(-c2cncc(C(CO)CO)c2)ccc1OC [PF-07086920, 2-(5-(4-methoxy-3-propoxyphenyl)pyridin-3-yl)propane-1,3-diol]	–	–	–	–	–	–	–	–	–	increased	increased
